± gives the expanded uncertainty stated by the source.
What was measured:
[1] = 101.33 kPa, Liquid
[2] = refractive index (Na D-line) (dimensionless); conditions: 293.15 K; 101.33 kPa; Liquid; Standard Abbe refractometry
[3] = Boiling temperature at pressure P; conditions: Liquid, Distillation

| SMILES | mass density ([1]; 293.15 K) [kg/m3] | refractive index [2] | Boiling temperature at pressure P ([3]; 101.33 kPa) [°C] | Boiling temperature at pressure P ([3]; 1.733 kPa) [°C] | mass density ([1]; 298.15 K) [kg/m3] |
| --- | --- | --- | --- | --- | --- |
| COC(=O)CCC(=O)OC [dimethyl 1,4-butanedioate] | 1119.13 ± 1.5 | 1.41969 ± 0.00082 | 196.1 ± 0.2 | – | – |
| COC(=O)CCCCC(=O)OC [dimethyl 1,6-hexanedioate] | 1061.72 ± 0.61 | 1.42825 ± 0.00075 | – | 115 ± 1 | – |
| COC(=O)CCCC(=O)OC [dimethyl pentanedioate] | 1087.67 ± 0.68 | 1.42454 ± 0.00075 | 214.2 ± 0.2 | – | – |
| CCC(=O)O [propanoic acid] | – | 1.3808 ± 0.00075 | 141.4 ± 0.2 | – | 988 ± 0.5 |

— the NIST ThermoML archive (doi:10.1016/j.jct.2007.02.012)
